Reference: patent US20250145631A1, “HETEROCYCLIC COMPOUND ACTING ON G12D MUTANT KRAS PROTEIN” (Astellas Pharma Inc., priority 2022, published 2025)

Assays:
[1] = test system: phosphorylation of ERK (Thr202/Tyr204); assay: ERK phosphorylation inhibitory effect by Cell ELISA in AsPC-1 cells (Test Example 2); type: cell-based; conditions: Homo sapiens, ASPC1, overnight treatment, Cell ELISA, read-out: IC50 (ERK phosphorylation inhibition)
In short: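 AsPC-1 cells (2.0×10^4/well, RPMI 1640 + 10% FBS) treated overnight with compounds (10 points, 10 μM to 0.3 nM final), then glyoxal-fixed and immunostained for phospho-ERK with IRDye 800CW secondary; 800-nm fluorescence read. IC50 by Sigmoid-Emax regression, normalized to DMSO (100%) and 1 μM trametinib (0%).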

[2] = test system: human KRAS G12D mutant-positive PK-59 pancreatic cancer cell line-derived xenograft; assay: Anti-tumor activity in PK-59 xenograft mice (Test Example 4); type: in vivo; conditions: 3 mg/kg into tail vein, once a week, twice in total; PK-59 xenograft nude mice
Experimental: PK-59 cells (RIKEN BioResearch Center, RCB1901) were cultured using RPMI 1640 medium containing 10% fetal bovine serum in the presence of 5% CO2 at 37° C. The PK-59 cells were collected and suspended in PBS, and after adding an equal amount of Matrigel (from Becton, Dickinson and Company), 4- to 5-week-old male nude mice (BALB/c-nu (nu/nu), from Charles River Laboratories Japan) were subcutaneously inoculated with the cell suspension of 1.0 to 2.0×10^7 cells/mL was subcutaneously inoculated in a volume of 100 μL per mouse. About two weeks after the inoculation, the mice were divided into groups so that all the groups had approximately the same tumor volume and body weight, and administration of test compounds was started on the next day. The study was conducted for 5 mice each of a vehicle group and test compound administration groups. The compounds were dissolved in a solvent containing ethanol (from FUJIFILM Wako Pure Chemical Corporation), a 5% glucose solution (from Otsuka Pharmaceutical), 1M hydrochloric acid (from Kanto Chemical Co., Inc.), 50% (2-hydroxypropyl)-P-cyclodextrin (HP-βCD) solution (from ROQUETTE), HCO-40 (from Nikko Chemicals Co., Ltd.) and 1M sodium hydroxide solution (from Kanto Chemical Co., Inc.) at a liquid amount ratio of 4:84.4:1.1:1:9:0.5. The test compounds dissolved in the respective solvents or the solvents were administered into tail vein. The administration was performed once a week and twice in total. The tumor sizes and the body weights were measured twice a week. The tumor volumes were calculated using the following equation.
[Tumor volume (mm^3)]=[Long diameter of tumor (mm)]×[Short diameter of tumor (mm)]^2×0.5
The tumor growth inhibition rate (%) by the test compounds were calculated with the tumor volumes of the test compound administration groups on the previous day of the start of the administration taken as 100% inhibition and the tumor volumes of the vehicle groups two weeks after the initial administration taken as 0% inhibition. In addition, when the tumor volume of a test compound administration group was smaller than the tumor volume on the previous day of the start of the administration, the tumor regression rate (%) by the test compound was calculated with the tumor volume on the previous day of the start of the administration taken as 0% regression and with the tumor volume 0 taken as 100% regression.

Compound: Cc1c(F)cc2[nH]ncc2c1-c1c(C2CC2)cc2c(N3C[C@@H]4C[C@H]3CN4)nc(OC3CCOCC3)nc2c1OCc1ccc(C(=O)N2CCN(Cc3ccc4c(c3)n(C)c(=O)n4C3CCC(=O)NC3=O)C[C@@H]2C)cc1 (stereo partly drawn) [Example 8, 3-(5-{[(3S)-4-{4-[({(7M)-6-cyclopropyl-4-[(1S,4S)-2,5-diazabicyclo[2.2.1]heptan-2-yl]-7-(6-fluoro-5-methyl-1H-indazol-4-yl)-2-[(oxan-4-yl)oxy]quinazolin-8-yl}oxy)methyl]benzoyl}-3-methylpiperazin-1-yl]methyl}-3-methyl-2-oxo-2,3-dihydro-TH-benzimidazol-1-yl)piperidine-2,6-dione]
- IC50 [1]: 21 nM
- Anti-Tumor Activity Two Weeks After Initial Administration (tumor regression rate) [2]: 28% regression

Compound: CO[C@@H](C)COc1cc(O[C@H]2CCNC2)c2cc(C3CC3)c(-c3c(C)c(F)cc4[nH]ncc34)c(OCc3ccc(C(=O)N4CCN(Cc5ccc6c(c5)n(C)c(=O)n6C5CCC(=O)NC5=O)C[C@@H]4C)cc3)c2n1 (stereo partly drawn) [Example 12, 3-[5-({(3S)-4-[4-({[6-cyclopropyl-7-(6-fluoro-5-methyl-1H-indazol-4-yl)-2-[(2S)-2-methoxypropoxy]-4-{[(3S)-pyrrolidin-3-yl]oxy}quinolin-8-yl]oxy}methyl)benzoyl]-3-methylpiperazin-1-yl}methyl)-3-methyl-2-oxo-2,3-dihydro-1H-benzimidazol-1-yl]piperidine-2,6-dione]
- IC50 [1]: 16 nM
- Anti-Tumor Activity Two Weeks After Initial Administration (tumor regression rate) [2]: 35% regression

Compound: CO[C@@H](C)COc1nc(N2C[C@@H]3C[C@H]2CN3)c2cc(C3CC3)c(-c3c(C)c(F)cc4[nH]ncc34)c(OCc3ccc(C(=O)N4CCN(Cc5ccc6c(c5)n(C)c(=O)n6C5CCC(=O)NC5=O)C[C@@H]4C)cc3)c2n1 (stereo partly drawn) [Example 10, 3-(5-{[(3S)-4-{4-[({(7M)-6-cyclopropyl-4-[(1S,4S)-2,5-diazabicyclo[2.2.1]heptan-2-yl]-7-(6-fluoro-5-methyl-1H-indazol-4-yl)-2-[(2S)-2-methoxypropoxy]quinazolin-8-yl}oxy)methyl]benzoyl}-3-methylpiperazin-1-yl]methyl}-3-methyl-2-oxo-2,3-dihydro-1H-benzimidazol-1-yl)piperidine-2,6-dione]
- IC50 [1]: 9 nM
- Anti-Tumor Activity Two Weeks After Initial Administration (tumor regression rate) [2]: 28% regression

Compound: CO[C@@H](C)COc1cc(N2C[C@@H]3C[C@H]2CN3)c2cc(C3CC3)c(-c3c(C)c(F)cc4[nH]ncc34)c(OCc3ccc(C(=O)N4CCN(Cc5ccc6c(c5)n(C)c(=O)n6C5CCC(=O)NC5=O)C[C@@H]4C)cc3)c2n1 (stereo partly drawn) [Example 29, 3-(5-{[(3S)-4-{4-[({6-cyclopropyl-4-[(1S,4S)-2,5-diazabicyclo[2.2.1]heptan-2-yl]-7-(6-fluoro-5-methyl-1H-indazol-4-yl)-2-[(2S)-2-methoxypropoxy]quinolin-8-yl}oxy)methyl]benzoyl}-3-methylpiperazin-1-yl]methyl}-3-methyl-2-oxo-2,3-dihydro-1H-benzimidazol-1-yl)piperidine-2,6-dione]
- IC50 [1]: 24 nM
- Anti-Tumor Activity Two Weeks After Initial Administration (tumor regression rate) [2]: 5% regression
